29 molecules from US11439707B2, “Hypocrellin derivative substituted both in a peri-position and in 2-position by amino, preparation method, and application thereof” (priority 2017, dated 2022) can be followed below.

The nature of data set [1]: absorption spectrum (maximum absorption wavelength, molar extinction coefficient). It is filed as physicochemical.
The nature of data set [2]: singlet oxygen efficiency test, reference rose bengal. The data set is classed as physicochemical.

On to `COCCOCCOCCOCCOC(=O)C1CCC(CNc2c3c4c5c(c(OC)c(=O)c6c(O)cc(OC)c(c7c(OC)cc(NCC8CCC(C(=O)OCCOCCOCCOCCOC)CC8)c(c2=O)c74)c65)CC(C)=C3)CC1` (stereo not drawn) [HC-13c-PEG4], for which, in data set [1], the maximum absorption wavelength was determined as 632 nm and the molar extinction coefficient is 31,500 M^−1cm^−1. Besides, the singlet oxygen yield in data set [2] is reported as 36%.
As for `COc1c2c3c4c(c(NCCS(=O)(=O)OC)c(=O)c5c(NCCS(=O)(=O)OC)cc(OC)c(c6c(OC)cc(O)c(c1=O)c63)c54)C=C(C)C2C(C)=O` (stereo not drawn) [HB-12c], in data set [1], the maximum absorption wavelength was determined as 622 nm and the molar extinction coefficient is 23,500 M^−1cm^−1. Further, the singlet oxygen yield in data set [2] turned out to be 22%.
`COCCOCCOCCOCCOCCNC(=O)C1CCC(CNc2c(O)c3c(=O)cc(OC)c4c5c(OC)cc(=O)c6c(NCC7CCC(C(=O)NCCOCCOCCOCCOCCOC)CC7)c(OC)c7c(c(c2C=C(C)C7)c34)c65)CC1` (stereo not drawn) [HC-13b-NH-PEG4]: in data set [1], the maximum absorption wavelength is recorded as 624 nm and the molar extinction coefficient is on record as 30,000 M^−1cm^−1. In data set [2], this molecule showed a singlet oxygen yield of 32%.
For `COCCOC(=O)CCCNc1c(NCCCC(=O)OCCOC)c2c(=O)cc(OC)c3c4c(OC)cc(=O)c5c(O)c(OC)c6c(c(c1C=C(C)C6C(C)=O)c23)c54` (stereo not drawn) [HB-8a-PEG1] the same measures were 621 nm, 30,500 M^−1cm^−1 and 28%.
For the molecule `COCCOCCC(=O)OCC1(Nc2c(NC3(COC(=O)CCOCCOC)CC3)c3c(=O)cc(OC)c4c5c(OC)cc(=O)c6c(O)c(OC)c7c(c(c2C=C(C)C7C(C)=O)c34)c65)CC1` (stereo not drawn) [HB-35a-PEG1], in data set [1], the maximum absorption wavelength came to 624 nm and the molar extinction coefficient was 31,500 M^−1cm^−1. The same molecule came in with a singlet oxygen yield in data set [2] of 34%.
For `COCCOCCOCCOCCOCCOCCOCCC(=O)OCC1(Nc2c3c4c5c(c(OC)c(=O)c6c(O)cc(OC)c(c7c(OC)cc(NC8(COC(=O)CCOCCOCCOCCOCCOCCOCCOC)CC8)c(c2=O)c74)c65)C(C(C)=O)C(C)=C3)CC1` (stereo not drawn) [HB-35c-PEG6] the same measures were 630 nm, 33,500 M^−1cm^−1 and 38%.
Turning to `COCCOCCOCCOCCOCCOCCOCCOCCOCCNC(=O)C1CCC(CNc2c3c4c5c(c(OC)c(=O)c6c(NCC7CCC(C(=O)NCCOCCOCCOCCOCCOCCOCCOCCOCCOC)CC7)cc(OC)c(c7c(OC)cc(O)c(c2=O)c74)c65)C(C(C)=O)C(C)=C3)CC1` (stereo not drawn) [HB-13d-NH-PEG8], in data set [1], the maximum absorption wavelength is 628 nm and the molar extinction coefficient is on record as 31,500 M^−1cm^−1. This molecule showed a singlet oxygen yield in data set [2] of 32%.
The corresponding values for `COCCOCCOCCOCCOCCOCCOCCOCCOCCOCCOCCOCCOCCC(=O)OCCNc1c2c3c4c(c(OC)c(=O)c5c(O)cc(OC)c(c6c(OC)cc(NCCOC(=O)CCOCCOCCOCCOCCOCCOCCOCCOCCOCCOCCOCCOCCOC)c(c1=O)c63)c54)C(C(C)=O)C(C)=C2` (stereo not drawn) [HB-2c-PEG12] are 626 nm, 32,500 M^−1cm^−1 and 36%.
The corresponding values for `COCCOCCN1CCC(CNc2c(NCC3CCN(CCOCCOC)CC3)c3c(=O)cc(OC)c4c5c(OC)cc(=O)c6c(O)c(OC)c7c(c(c2C=C(C)C7C(C)=O)c34)c65)CC1` (stereo not drawn) [HB-32a-PEG1] are 622 nm, 32,000 M^−1cm^−1 and 32%.
For `COc1c(O)c2c(=O)cc(OC)c3c4c(OC)cc(=O)c5c(NCCOCCO)c(NCCOCCO)c6c(c(c1CC(C)=C6)c23)c54` [HC-1a] the same measures were 628 nm, 28,000 M^−1cm^−1 and 36%.
Regarding `COc1c(O)c2c(=O)cc(OC)c3c4c(OC)cc(=O)c5c(NCCCCCC(=O)O)c(NCCCCCC(=O)O)c6c(c(c1CC(C)=C6)c23)c54` [HC-9a], in data set [1], the maximum absorption wavelength worked out at 620 nm and the molar extinction coefficient is on record as 26,500 M^−1cm^−1. Besides, the singlet oxygen yield in data set [2] was determined as 26%.
In the case of `CCNc1c(NC2CCCC2)c2c(=O)c(SCCO)c(OC)c3c4c(OC)cc(=O)c5c(O)c(OC)c6c(c(c1C=C(C)C6C(C)=O)c23)c54` (stereo not drawn) [HB-S-44a], in data set [1], the maximum absorption wavelength stood at 628 nm and the molar extinction coefficient was 21,500 M^−1cm^−1. For the same molecule, the singlet oxygen yield in data set [2] is 20%.
For `COC(=O)C1CCC(CNc2c3c4c5c(c(OC)c(=O)c6c(O)cc(OC)c(c7c(OC)cc(NCC8CCC(C(=O)OC)CC8)c(c2=O)c74)c65)C(C(C)=O)C(C)=C3)CC1` (stereo not drawn) [HB-13c-AcE] the same measures were 621 nm, 28,500 M^−1cm^−1 and 30%.
For `COc1c2c3c4c(c(NCCO)c(=O)c5c(O)cc(OC)c(c6c(OC)cc(NCCO)c(c1=O)c63)c54)C=C(C)C2` [HC-2d] the same measures were 625 nm, 28,500 M^−1cm^−1 and 34%.
`COc1c2c3c4c(c(NCC5CCC(C(=O)OCCCC[P+](c6ccccc6)(c6ccccc6)c6ccccc6)CC5)c(=O)c5c(O)cc(OC)c(c6c(OC)cc(NCC7CCC(C(=O)OCCCC[P+](c8ccccc8)(c8ccccc8)c8ccccc8)CC7)c(c1=O)c63)c54)C=C(C)C2` (stereo not drawn) [HC-30d-C4-PPh3^+]: in data set [1], the maximum absorption wavelength is 630 nm and the molar extinction coefficient is 32,500 M^−1cm^−1. Besides, in data set [2], the singlet oxygen yield turned out to be 31%.
Regarding `COc1c(NC2CCCC(C(=O)O)C2)c2c(=O)cc(OC)c3c4c(OC)cc(=O)c5c(O)c(NC6CCCC(C(=O)O)C6)c6c(c(c1C(C(C)=O)C(C)=C6)c23)c54` (stereo not drawn) [HB-15b], in data set [1], the maximum absorption wavelength amounted to 623 nm and the molar extinction coefficient is 27,000 M^−1cm^−1. In addition, the singlet oxygen yield in data set [2] was determined as 24%.
Take `COCCOCCOCCOCCOCCOCCOCCOCCOC(=O)C1CCC(CNc2c3c4c5c(c(OC)c(=O)c6c(O)cc(OC)c(c7c(OC)cc(NCC8CCC(C(=O)OCCOCCOCCOCCOCCOCCOCCOCCOC)CC8)c(c2=O)c74)c65)CC(C)=C3)CC1` (stereo not drawn) [HC-13c-PEG8]: in data set [1], the maximum absorption wavelength is recorded as 628 nm and the molar extinction coefficient was 32,500 M^−1cm^−1. Further, the singlet oxygen yield in data set [2] came to 38%.
Turning to `COc1c2c3c4c(c(NCCCC(=O)NCCCCCC[N+](C)(C)C)c(=O)c5c(NCCCC(=O)NCCCCCC[N+](C)(C)C)cc(OC)c(c6c(OC)cc(O)c(c1=O)c63)c54)C=C(C)C2` [HC-8c-NH—C6-N^+], in data set [1], the maximum absorption wavelength was 634 nm and the molar extinction coefficient is listed as 32,000 M^−1cm^−1. The molecule also yielded a singlet oxygen yield in data set [2] of 36%.
In the case of `CCNNc1c2c3c4c(c(OC)c(=O)c5c(O)cc(OC)c(c6c(OC)cc(NNCC)c(c1=O)c63)c54)C(C(C)=O)C(C)=C2` (stereo not drawn) [HB-36c], in data set [1], the maximum absorption wavelength is 621 nm and the molar extinction coefficient is on record as 33,500 M^−1cm^−1. This molecule yielded a singlet oxygen yield in data set [2] of 35%.
The corresponding values for `COc1c2c3c4c(c(NC5(CO)CC5)c(=O)c5c(O)cc(OC)c(c6c(OC)cc(NC7(CO)CC7)c(c1=O)c63)c54)C=C(C)C2C(C)=O` (stereo not drawn) [HB-35d] are 621 nm, 31,500 M^−1cm^−1 and 30%.
As to `COCCOCCNc1c(NCCCC(=O)O)c2c3c4c(c(OC)c(O)c5c(=O)cc(OC)c(c6c(OC)cc(=O)c1c63)c54)C(C(C)=O)C(C)=C2` (stereo not drawn) [HB-47a-PEG1], in data set [1], the maximum absorption wavelength was 622 nm and the molar extinction coefficient is 30,500 M^−1cm^−1. The same molecule gave a singlet oxygen yield in data set [2] of 30%.
The corresponding values for `COCCOCCOCCOCCOCCOCCOC(=O)CCCNc1c2c3c4c(c(OC)c(=O)c5c(O)cc(OC)c(c6c(OC)cc(NCCCC(=O)OCCOCCOCCOCCOCCOCCOC)c(c1=O)c63)c54)C(C(C)=O)C(C)=C2` (stereo not drawn) [HB-8c-PEG6] are 630 nm, 32,500 M^−1cm^−1 and 34%.
For `COc1c(O)c2c(=O)cc(OC)c3c4c(OC)cc(=O)c5c(NC(CS)C(=O)O)c(NC(CS)C(=O)O)c6c(c(c1C(C(C)=O)C(C)=C6)c23)c54` (stereo not drawn) [HB-25a] the same measures were 625 nm, 21,500 M^−1cm^−1 and 18%.
For `COc1c(O)c2c(=O)cc(OC)c3c4c(OC)cc(=O)c5c(NC6CCCC(C(=O)O)C6)c(NC6CCCC(C(=O)O)C6)c6c(c(c1C(C(C)=O)C(C)=C6)c23)c54` (stereo not drawn) [HB-15a] the same measures were 625 nm, 27,000 M^−1cm^−1 and 25%.
`COc1c(O)c2c(=O)cc(OC)c3c4c(OC)cc(=O)c5c(NCc6ccccn6)c(NCc6ccccn6)c6c(c(c1C(C(C)=O)C(C)=C6)c23)c54` (stereo not drawn) [HB-38a]: in data set [1], the maximum absorption wavelength is reported as 624 nm and the molar extinction coefficient is reported as 19,000 M^−1cm^−1. Further, in data set [2], the singlet oxygen yield turned out to be 16%.
`COCCOCCOCCOCCOCCOCCOCCC(=O)OC1CCC(Nc2c(O)c3c(=O)cc(OC)c4c5c(OC)cc(=O)c6c(NC7CCC(OC(=O)CCOCCOCCOCCOCCOCCOCCOC)C7)c(OC)c7c(c(c2C=C(C)C7C(C)=O)c34)c65)C1` (stereo not drawn) [HB-20b-PEG6]: in data set [1], the maximum absorption wavelength amounted to 624 nm and the molar extinction coefficient was 31,000 M^−1cm^−1. The same molecule yielded a singlet oxygen yield in data set [2] of 28%.
Regarding `COc1c2c3c4c(c(NCCNCCOCCOCCOCCOCCO)c(=O)c5c(NCCNCCOCCOCCOCCOCCO)c(Br)c(OC)c(c6c(OC)cc(O)c(c1=O)c63)c54)C=C(C)C2C(C)=O` (stereo not drawn) [HB-5c-Br-PEG4], in data set [1], the maximum absorption wavelength was 630 nm and the molar extinction coefficient is given as 31,500 M^−1cm^−1. Moreover, the singlet oxygen yield in data set [2] is reported as 36%.
Take `COc1c(O)c2c(=O)cc(OC)c3c4c(OC)cc(=O)c5c(NCCS(=O)(=O)OC)c(NCCS(=O)(=O)OC)c6c(c(c1C(C(C)=O)C(C)=C6)c23)c54` (stereo not drawn) [HB-12a]: in data set [1], the maximum absorption wavelength is 621 nm and the molar extinction coefficient is 23,500 M^−1cm^−1. This molecule showed a singlet oxygen yield in data set [2] of 20%.
The corresponding values for `CCCCCCNc1c2c3c4c(c(OC)c(=O)c5c(NCCCCCC)cc(OC)c(c6c(OC)cc(O)c(c1=O)c63)c54)CC(C)=C2` [HC-34d] are 628 nm, 32,000 M^−1cm^−1 and 32%.
